Key:
NF-κB P65 = experiment: Western blotting of nuclear NF-κB and AP-1 in HSC T6 cells; assay type: cell-based, rat; settings: DBZIM 100 μM, TDBZIM 50 μM, 48 h
Method: FIG. 11. Western blotting of NF-κB and AP-1 (c-Fos, JunD and Fra-1) protein expressions in HSC T6 cells treated with DBZIM (100 μM) and TDBZIM (50 μM) for 48 h. 15 μg of nuclear protein was resolved in 4-12% gradient PAGE-SDS gel. The target proteins were recognized by the respective antibodies, and visualized by the ECL method. The membrane was stripped and probed for the Tata binding protein TBP used as the loading control.
Protein extracts were prepared by lysing a cell pellet in 10 volumes of boiled 1% sodium dodecyl sulfate (SDS) (90-95° C.) for 10 min for GFAP, or using NE-PER nuclear and cytoplasmic extraction reagents from Pierce (IL, USA) for nuclear proteins, or RIPA (Pierce, Ill., USA) for SMAA, fibronectin, collagen αI(I), TGF-β1 and TGFβ RI. Protein content was quantified using a BCA kit (Pierce, Ill., USA). […] The membrane was then probed with primary antibodies against GFAP (Dako, Denmark), SMAA (Sigma, USA), procollagen αI(I), fibronectin, c-Jun, c-Fos, JunB, JunD, Fra-1, Fra-2 (Santa Cruz Biotechnology, CA, USA), NF-κB P65, TGF-β1 and TGFβ RI (Abeam, UK), and detected by horseradish peroxidase-conjugated secondary antibody (Santa Cruz Biotechnology, CA, USA). […] Protein bands were recorded on X-ray film by reacting with ECL chemiluminescence reagents (Amersham Biosciences, NJ, USA). […]

primary HSCs = experiment: Protection of primary HSCs from DMSO cytotoxicity; assay type: cell-based, Wistar rat; settings: DBZIM 100 μM, TDBZIM 50 μM
Method: FIG. 5. DBZIM and TDBZIM protected primary HSC cells against oxidative stress induced by 0.2% (v/v) of DMSO. (a) Optical images of cells treated with IMSs for 26 and 93 h. Scale bar=60 μm. 0.2% (v/v) of DMSO induced oxidative stress by depleting the total GSH level (b), inducing the GSSG level (c), reducing the GSH/GSSG ratio (d), and inducing GPX (e), CAT (f) and SOD (g) activity levels. The data were presented as mean and SEM, N=6, *^cP<0.005, and *^dP<0.0005; when compared to the untreated sample.
The isolation of primary HSCs from Wistar rat liver was performed primarily following the method provided in a previous report (Weiskirchen et al. 2005). Briefly, the supernatant of cell suspension after hepatocyte removal was washed and re-suspended in 9.5 ml of Gey's balance salt solution (GBSS), and mixed with 8 ml of 28.7% (w/v) Histodenz in GBSS. The gradient was prepared by laying the cell suspension underneath 6 ml of GBSS, and centrifuged in Histodenz gradient at 1400×g for 20 min. The stellate cells were separated into a fuzzy band just above the interface of the Histodenz solution and the aqueous buffer. The stellate cell band was harvested, washed, and 1×10^6 cells/well were seeded in a 6-well culture plate in Dulbecco modified Eagle's medium (DMEM) supplemented with 10% fetal bovine serum (FBS). The viability of the HSCs was >95% as determined by trypan blue exclusion staining, and the purity of the HSCs was >90% as assessed by glial fibrillary acidic protein (GFAP) positive staining in >200 cells counted. Primary HSCs were routinely cultured in DMEM with 10% FBS in a humidified CO2 incubator at 37° C., and split at 1:4 ratio by trypsinization (0.05% trypsin/0.53 mM ethylenediaminetetraacetic acid (EDTA)) when they grew to confluency. The HSC-T6 cell line was kindly provided by Dr. Scott Friedman of Mount Sinai School of Medicine, New York. A stable T6/GFAP-LacZ clonal cell line was established as previously reported (Maubach et al. 2006). HSC-T6 and T6/GFAP-LacZ cells were cultured in the same conditions as the primary HSCs.

FVB mice = experiment: General toxicity of IMSs in mice; assay type: in vivo; settings: intraperitoneally every other day for 2 weeks
Method: (§1) IMSs (DPIM and DBZIM) were dissolved in saline, and administered to Friend virus B-Type (FVB) mice (weighing ˜25-30 g) intraperitoneally every other day for 2 weeks. The dosages were 0, 200, 300, 350, 400 and 500 mg/kg for DPIM, and 0, 10, 30, 35, 40 and […] for DBZIM. The injection volume was maintained at 100-160 μl. The mortality rate of mice was assessed after the treatment. The animal experimental protocol was approved by the Institutional Animal Care and Use Committee (IACUC) of Biological Resource Center (BRC) at Biopolis, Singapore.
(§2) In the preliminary toxicity studies, two forms of IMSs were selected for in vivo testing with FVB inbred mice. For DBZIM, the lethal dosage was 50 mg/kg and LD50 was estimated to be 30-40 mg/kg. For DPIM, the lethal dosage was 500 mg/kg and LD50 was ˜300-400 mg/kg.

[1] = General toxicity of IMSs in mice; assay type: in vivo; settings: mouse, in vivo, ip; FVB mice, intraperitoneally every other day for 2 weeks; estimated
Method: as §1, §2

| Compound | nuclear NF-κB P65 (active form) protein (NF-κB P65) | cell survival in 0.2% (v/v) DMSO (primary HSCs; 26 h) | cell survival in 0.2% (v/v) DMSO (primary HSCs; over 93 h) | lethal dosage (FVB mice) [mg/kg] | LD50 at 2 weeks [1] [mg/kg] |
| --- | --- | --- | --- | --- | --- |
| 1,3,5-tris(4-methyl-imidazolium)-linked cyclophane.3Br [TDBZIM] | significantly attenuated | survived | remained viable and proliferated to confluency |  |  |
| [Br-].c1ccc(Cn2cc[n+](Cc3ccccc3)c2)cc1 [DBZIM, 1,3-bisbenzylimidazolium bromide] | significantly attenuated | survived | most cells died | 50 | 30 to 40 |
| CC(C)n1cc[n+](C(C)C)c1.F[B-](F)(F)F [DPIM, 1,3-diisopropylimidazolium tetrafluoroborate] |  |  |  | 500 | 300 to 400 |

Reference: patent publication US9072729B2, “Method for treating fibrosis and cancer with imidazolium and imidazolinium compounds” (Agency for Science, Technology and Research, priority 2008, dated 2015)
